Key:
[1] = target: T1, SMARCA2-HiBiT (Homo sapiens, UniProt P51531); assay: SMARCA2 HiBiT degradation assay in HeLa cells; assay type: cell-based; details: 18 hours incubation; for DC50: read-out: HeLa_HiBit-SM2 DC50; for Dmax: HeLa, read-out: HeLa-HiBit-SM2 Dmax (%)
T1 construct: SMARCA2-HiBiT knock-in Hela monoclonal cell (CS302366); host or cells: HeLa monoclonal knock-in line (CRISPR HiBiT knock-in at the endogenous locus, heterozygous)
Procedure, shortened: (§1)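 HeLa monoclonal lines with heterozygous HiBiT knock-in were seeded at 2500 cells/well in EMEM with 10% FBS and treated with compound for 18 h at 37 °C. Remaining tagged protein was measured by Nano-Glo HiBiT lytic luminescence after 30–60 min at RT, and values came from curve fitting.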

[2] = target: T2, SMARCA4-HiBiT (Homo sapiens, UniProt P51532); assay: SMARCA4 HiBiT degradation assay in HeLa cells; assay type: cell-based; details: 18 hours incubation; for DC50: read-out: HeLa-HiBit-SM4 DC50; for Dmax: HeLa, read-out: HeLa-HiBit-SM4 Dmax (%)
T2 construct: SMARCA4-HiBiT knock-in Hela monoclonal cell (CS3023226); host or cells: HeLa monoclonal knock-in line (CRISPR HiBiT knock-in at the endogenous locus, heterozygous)
T2 sequence (P51532 whole entry): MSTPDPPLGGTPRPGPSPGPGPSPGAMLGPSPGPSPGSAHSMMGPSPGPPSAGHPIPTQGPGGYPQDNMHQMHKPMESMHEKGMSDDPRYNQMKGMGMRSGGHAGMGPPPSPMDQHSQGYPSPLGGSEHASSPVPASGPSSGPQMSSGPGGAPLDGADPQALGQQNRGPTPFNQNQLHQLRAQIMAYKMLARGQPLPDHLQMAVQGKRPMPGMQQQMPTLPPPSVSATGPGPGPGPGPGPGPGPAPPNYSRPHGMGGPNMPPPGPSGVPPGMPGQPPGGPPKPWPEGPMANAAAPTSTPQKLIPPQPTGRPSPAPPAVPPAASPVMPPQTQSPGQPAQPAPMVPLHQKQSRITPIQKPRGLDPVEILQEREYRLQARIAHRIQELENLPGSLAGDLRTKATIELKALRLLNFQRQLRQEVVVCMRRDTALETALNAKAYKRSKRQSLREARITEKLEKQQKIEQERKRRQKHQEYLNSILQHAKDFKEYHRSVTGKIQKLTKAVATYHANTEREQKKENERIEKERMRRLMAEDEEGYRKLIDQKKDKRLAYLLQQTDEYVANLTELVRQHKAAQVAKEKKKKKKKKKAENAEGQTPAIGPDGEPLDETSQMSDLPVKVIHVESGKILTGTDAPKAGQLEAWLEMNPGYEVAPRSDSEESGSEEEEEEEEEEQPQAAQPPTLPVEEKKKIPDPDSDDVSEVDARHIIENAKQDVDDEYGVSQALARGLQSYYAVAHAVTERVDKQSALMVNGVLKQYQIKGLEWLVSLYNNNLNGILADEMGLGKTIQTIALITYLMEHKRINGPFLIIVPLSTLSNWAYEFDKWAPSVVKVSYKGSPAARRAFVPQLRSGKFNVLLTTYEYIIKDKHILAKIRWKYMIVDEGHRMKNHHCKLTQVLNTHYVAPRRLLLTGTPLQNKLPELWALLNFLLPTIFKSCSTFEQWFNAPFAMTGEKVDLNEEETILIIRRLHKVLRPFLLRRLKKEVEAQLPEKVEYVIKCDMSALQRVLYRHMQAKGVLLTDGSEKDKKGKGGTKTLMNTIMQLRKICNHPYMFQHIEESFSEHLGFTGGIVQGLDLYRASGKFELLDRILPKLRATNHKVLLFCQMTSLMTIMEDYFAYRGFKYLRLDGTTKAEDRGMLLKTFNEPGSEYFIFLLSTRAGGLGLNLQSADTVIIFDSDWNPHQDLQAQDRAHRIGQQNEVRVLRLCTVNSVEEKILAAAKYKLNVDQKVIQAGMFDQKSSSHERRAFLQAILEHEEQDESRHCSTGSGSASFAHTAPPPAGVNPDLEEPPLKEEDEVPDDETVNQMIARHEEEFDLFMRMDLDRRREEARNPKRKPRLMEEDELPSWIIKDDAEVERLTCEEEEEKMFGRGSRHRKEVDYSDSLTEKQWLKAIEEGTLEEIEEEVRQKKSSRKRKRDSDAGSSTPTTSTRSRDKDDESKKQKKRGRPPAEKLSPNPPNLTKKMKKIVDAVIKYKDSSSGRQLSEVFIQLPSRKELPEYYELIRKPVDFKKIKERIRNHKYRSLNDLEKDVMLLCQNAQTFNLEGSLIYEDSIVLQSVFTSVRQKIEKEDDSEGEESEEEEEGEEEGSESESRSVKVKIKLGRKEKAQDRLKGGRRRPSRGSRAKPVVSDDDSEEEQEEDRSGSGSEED
Procedure, shortened: as §1

T1 sequence (P51531 whole entry): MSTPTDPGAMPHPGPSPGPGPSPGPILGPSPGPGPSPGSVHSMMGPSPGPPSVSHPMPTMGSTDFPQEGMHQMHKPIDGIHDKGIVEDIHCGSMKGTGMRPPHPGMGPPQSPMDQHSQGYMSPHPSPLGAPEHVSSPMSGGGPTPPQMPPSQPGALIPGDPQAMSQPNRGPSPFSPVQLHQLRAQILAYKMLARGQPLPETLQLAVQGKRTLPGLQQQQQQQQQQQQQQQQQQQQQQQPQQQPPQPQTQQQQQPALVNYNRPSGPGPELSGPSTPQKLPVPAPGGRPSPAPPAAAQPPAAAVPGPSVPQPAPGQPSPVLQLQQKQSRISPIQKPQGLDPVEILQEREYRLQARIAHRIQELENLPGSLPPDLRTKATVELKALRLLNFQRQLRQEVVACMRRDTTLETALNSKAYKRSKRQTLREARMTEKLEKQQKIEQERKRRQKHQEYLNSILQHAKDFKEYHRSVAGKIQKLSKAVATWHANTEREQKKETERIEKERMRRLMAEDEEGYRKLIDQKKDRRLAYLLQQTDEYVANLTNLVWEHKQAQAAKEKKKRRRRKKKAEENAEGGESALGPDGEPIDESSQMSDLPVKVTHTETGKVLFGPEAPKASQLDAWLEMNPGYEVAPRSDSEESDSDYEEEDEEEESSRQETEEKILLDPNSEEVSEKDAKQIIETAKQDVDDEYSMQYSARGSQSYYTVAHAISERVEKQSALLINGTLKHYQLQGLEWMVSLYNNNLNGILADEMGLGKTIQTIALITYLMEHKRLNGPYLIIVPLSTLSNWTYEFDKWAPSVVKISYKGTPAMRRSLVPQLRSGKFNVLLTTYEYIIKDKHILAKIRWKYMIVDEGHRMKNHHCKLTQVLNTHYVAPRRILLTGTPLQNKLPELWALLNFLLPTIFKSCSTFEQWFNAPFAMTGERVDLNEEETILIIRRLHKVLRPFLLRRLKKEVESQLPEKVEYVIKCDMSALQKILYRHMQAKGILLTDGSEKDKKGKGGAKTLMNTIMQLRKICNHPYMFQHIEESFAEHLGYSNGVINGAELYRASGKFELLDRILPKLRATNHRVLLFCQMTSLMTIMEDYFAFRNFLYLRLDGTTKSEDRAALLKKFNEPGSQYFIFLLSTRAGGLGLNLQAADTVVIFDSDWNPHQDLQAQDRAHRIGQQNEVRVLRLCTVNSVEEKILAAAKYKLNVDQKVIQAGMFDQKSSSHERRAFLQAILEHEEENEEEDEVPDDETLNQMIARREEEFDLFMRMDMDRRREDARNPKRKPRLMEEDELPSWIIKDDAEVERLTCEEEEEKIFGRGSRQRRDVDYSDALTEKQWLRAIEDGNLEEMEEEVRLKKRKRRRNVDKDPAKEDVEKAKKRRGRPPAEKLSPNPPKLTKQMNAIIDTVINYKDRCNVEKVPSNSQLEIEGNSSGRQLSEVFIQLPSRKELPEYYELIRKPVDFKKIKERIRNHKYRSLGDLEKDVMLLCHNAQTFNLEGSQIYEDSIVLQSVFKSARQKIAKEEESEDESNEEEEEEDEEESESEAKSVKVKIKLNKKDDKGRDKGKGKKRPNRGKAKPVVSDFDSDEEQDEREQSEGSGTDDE

Structure (SMILES)	DC50 [1]	Dmax [1]	DC50 [2]	Dmax [2]	HeLa-HiBit-SM4 Dmax (%) [2]
C[C@H]1CN2c3cc(-c4ccccc4O)nnc3NC[C@H]2CN1CC1CCN(CC2CCN(c3ccc4c(c3)C(=O)N(C3CCC(=O)NC3=O)C4=O)CC2)CC1 (stereo partly drawn) [Example 28, 2-(2,6-dioxopiperidin-3-yl)-5-(4-((4-(((6aS,9S)-2-(2-hydroxyphenyl)-9-methyl-5,6,6a,7,9,10-hexahydro-8H-pyrazino[1′,2′:4,5]pyrazino[2,3-c]pyridazin-8-yl)methyl)piperidin-1-yl)methyl)piperidin-1-yl) isoindoline-1,3-dione]	< 10 nM	> 85%	< 10 nM	75 to 85%	
O=C1CCC(N2C(=O)c3ccc(Oc4ccc(N5CCC(N6CCN7c8cc(-c9ccccc9O)nnc8NC[C@H]7C6)CC5)cc4)cc3C2=O)C(=O)N1 (stereo partly drawn) [Example 241, 2-(2,6-dioxopiperidin-3-yl)-5-(4-(4-((S)-2-(2-hydroxyphenyl)-5,6,6a,7,9,10-hexahydro-8H-pyrazino[1′,2′:4,5]pyrazino[2,3-c]pyridazin-8-yl)piperidin-1-yl)phenoxy)isoindoline-1,3-dione]	< 10 nM	50 to 75%	10 to 100 nM	75 to 85%	
CN(CCNc1ccc2c(c1)C(=O)N(C1CCC(=O)NC1=O)C2=O)C1CCC(N2CCN3c4cc(-c5ccccc5O)nnc4NC[C@H]3C2)CC1 (stereo partly drawn) [Example 220, 2-(2,6-dioxopiperidin-3-yl)-5-((2-((4-((S)-2-(2-hydroxyphenyl)-5,6,6a,7,9,10-hexahydro-8H-pyrazino[1′,2′:4,5]pyrazino[2,3-c]pyridazin-8-yl)cyclohexyl)(methyl)amino)ethyl)amino) isoindoline-1,3-dione]	< 10 nM	75 to 85%	< 10 nM	75 to 85%	
CN1CCN(c2ccc3c(c2)C(=O)N(C2CCC(=O)NC2=O)C3=O)CC1CN1C[C@@H]2[C@H](C1)[C@H]2CN1CCN2c3cc(-c4ccccc4O)nnc3NC[C@H]2C1 (stereo partly drawn) [Example 56, 2-(2,6-dioxopiperidin-3-yl)-5-(3-(((1R,5S,6r)-6-(((S)-2-(2-hydroxyphenyl)-5,6,6a,7,9,10-hexahydro-8H-pyrazino[1′,2′:4,5]pyrazino[2,3-c]pyridazin-8-yl)methyl)-3-azabicyclo[3.1.0]hexan-3-yl)methyl)-4-methylpiperazin-1-yl)isoindoline-1,3-dione]	< 10 nM	50 to 75%	10 to 100 nM	75 to 85%	
O=C1CCC(N2C(=O)c3ccc(N4CCC(CN5CCCC(CN6CCN7c8cc(-c9ccccc9O)nnc8NC[C@H]7C6)C5)CC4)cc3C2=O)C(=O)N1 (stereo partly drawn) [Example 35, 2-(2,6-dioxopiperidin-3-yl)-5-(4-((3-(((S)-2-(2-hydroxyphenyl)-5,6,6a,7,9,10-hexahydro-8H-pyrazino[1′,2′:4,5]pyrazino[2,3-c]pyridazin-8-yl)methyl)piperidin-1-yl)methyl)piperidin-1-yl)isoindoline-1,3-dione]	< 10 nM	75 to 85%	< 10 nM	50 to 75%	
O=C1CCC(N2C(=O)c3ccc(N4CCC(CN5C6COCC5CC(CN5CCN7c8cc(-c9ccccc9O)nnc8NC[C@H]7C5)C6)CC4)cc3C2=O)C(=O)N1 (stereo partly drawn) [Example 133, 2-(2,6-dioxopiperidin-3-yl)-5-(4-((7-(((S)-2-(2-hydroxyphenyl)-5,6,6a,7,9,10-hexahydro-8H-pyrazino[1′,2′:4,5]pyrazino[2,3-c]pyridazin-8-yl)methyl)-3-oxa-9-azabicyclo[3.3.1]nonan-9-yl)methyl)piperidin-1-yl)isoindoline-1,3-dione]	< 10 nM	50 to 75%	< 10 nM	50 to 75%	
CC1CN(CCCC2CCN(c3cccc4c3C(=O)N(C3CCC(=O)NC3=O)C4=O)CC2)CCC1N1CCN2c3cc(-c4ccccc4O)nnc3NC[C@H]2C1 (stereo partly drawn) [Example 124, 2-(2,6-dioxopiperidin-3-yl)-4-(4-(3-(4-((S)-2-(2-hydroxyphenyl)-5,6,6a,7,9,10-hexahydro-811-pyrazino[1′,2′:4,5]pyrazino[2,3-c]pyridazin-8-yl)-3-methylpiperidin-1-yl)propyl)piperidin-1-yl) isoindoline-1,3-dione]	< 10 nM	50 to 75%	< 10 nM	50 to 75%	
O=C1CCC(N2Cc3cc(N4CCC(CN5C[C@@H]6[C@H](C5)[C@H]6CN5CCN6c7cc(-c8ccccc8O)nnc7NC[C@H]6C5)CC4)ccc3C2=O)C(=O)N1 (stereo partly drawn) [Example 92, 3-(5-(4-(((1R,5S,6r)-6-(((S)-2-(2-hydroxyphenyl)-5,6,6a,7,9,10-hexahydro-8H-pyrazino[1′,2′:4,5]pyrazino[2,3-c]pyridazin-8-yl)methyl)-3-azabicyclo[3.1.0]hexan-3-yl)methyl)piperidin-1-yl)-1-oxoisoindolin-2-yl)piperidine-2,6-dione]	< 10 nM	> 85%	< 10 nM	75 to 85%	
O=C1CCC(N2C(=O)c3ccc(N4CC[C@H](CN5C[C@@H]6[C@H](C5)[C@H]6CN5CCN6c7cc(-c8ccccc8O)nnc7NC[C@H]6C5)[C@@H](F)C4)cc3C2=O)C(=O)N1 (stereo partly drawn) [Example 193, 2-(2,6-dioxopiperidin-3-yl)-5-[(3R,4R)-3-fluoro-4-[[(1S,5R)-6-[[(10S)-4-(2-hydroxyphenyl)-1,5,6,8,12-pentazatricyclo[8.4.0.02,7]tetradeca-2(7),3,5-trien-12-yl]methyl]-3-azabicyclo [3.1.0]hexan-3-yl]methyl]piperidin-1-yl]isoindole-1,3-dione]	< 10 nM	75 to 85%	10 to 100 nM		C (C=50%<Dmax<=75%)
O=C1CCC(N2C(=O)c3ccc(NCCN4CCC(N5CCN6c7cc(-c8cc(F)ccc8O)nnc7NC[C@H]6C5)CC4)cc3C2=O)C(=O)N1 (stereo partly drawn) [Example 242, 2-(2,6-dioxopiperidin-3-yl)-5-((2-(4-((S)-2-(5-fluoro-2-hydroxyphenyl)-5,6,6a,7,9,10-hexahydro-8H-pyrazino[1′,2′:4,5]pyrazino[2,3-c]pyridazin-8-yl)piperidin-1-yl)ethyl)amino)isoindoline-1,3-dione]	< 10 nM	> 85%	< 10 nM	> 85%	
CC(CN1CCC(N2CCN3c4cc(-c5ccccc5O)nnc4NC[C@H]3C2)CC1)Oc1ccc2c(c1)CN([C@@H]1CCC(=O)NC1=O)C2=O (stereo partly drawn) [Example 214, (3R)-3-(5-((1-(4-((S)-2-(2-hydroxyphenyl)-5,6,6a,7,9,10-hexahydro-8H-pyrazino[1′,2′:4,5]pyrazino[2,3-c]pyridazin-8-yl)piperidin-1-yl)propan-2-yl)oxy)-1-oxoisoindolin-2-yl)piperidine-2,6-dione]	< 10 nM	75 to 85%	< 10 nM	50 to 75%	
O=C1CCC(N2C(=O)c3ccc(N4CCC(CN5CC(CN6CCN7c8cc(-c9ccccc9O)nnc8NC[C@H]7C6)C5)CC4)cc3C2=O)C(=O)N1 (stereo partly drawn) [Example 36, 2-(2,6-dioxopiperidin-3-yl)-5-(4-((3-(((S)-2-(2-hydroxyphenyl)-5,6,6a,7,9,10-hexahydro-8H-pyrazino[1′,2′:4,5]pyrazino[2,3-c]pyridazin-8-yl)methyl)azetidin-1-yl)methyl)piperidin-1-yl)isoindoline-1,3-dione]	< 10 nM	> 85%	< 10 nM	75 to 85%	
O=C1CCC(N2C(=O)c3ccc(N4CCC5(CC4)CC(CN4CCC(CN6CCN7c8cc(-c9ccccc9O)nnc8NC[C@H]7C6)CC4)C5)cc3C2=O)C(=O)N1 (stereo partly drawn) [Example 150, 2-(2,6-dioxopiperidin-3-yl)-5-(2-((4-(((S)-2-(2-hydroxyphenyl)-5,6,6a,7,9,10-hexahydro-8H-pyrazino[1′,2′:4,5]pyrazino[2,3-c]pyridazin-8-yl)methyl)piperidin-1-yl)methyl)-7-azaspiro[3.5]nonan-7-yl)isoindoline-1,3-dione]	< 10 nM	> 85%	< 10 nM	> 85%	
CC12CNc3nnc(-c4ccccc4O)cc3N1CCN(C1CCN(CCCc3ccc4c(c3)c3cccnc3n4C3CCC(=O)NC3=O)CC1)C2 (stereo not shown) [Example 25, 3-(6-(3-(4-(2-(2-hydroxyphenyl)-6a-methyl-5,6,6a,7,9,10-hexahydro-8H-pyrazino[1′,2′:4,5]pyrazino[2,3-c]pyridazin-8-yl)piperidin-1-yl)propyl)-9H-pyrido[2,3-b]indol-9-yl)piperidine-2,6-dione]	< 10 nM	> 85%	< 10 nM	75 to 85%	
O=C1CCC(N2C(=O)c3ccc(N4CCN(C5CCN(CCN6CCN7c8cc(-c9ccccc9O)nnc8NC[C@H]7C6)C5)CC4)cc3C2=O)C(=O)N1 (stereo partly drawn) [Example 221, 2-(2,6-dioxopiperidin-3-yl)-5-(4-(1-(2-((S)-2-(2-hydroxyphenyl)-5,6,6a,7,9,10-hexahydro-8H-pyrazino[1′,2′:4,5]pyrazino[2,3-c]pyridazin-8-yl)ethyl)pyrrolidin-3-yl)piperazin-1-yl) isoindoline-1,3-dione]	< 10 nM	75 to 85%	< 10 nM	50 to 75%	
O=C1CCC(N2C(=O)c3ccc(N4[C@@H]5CC[C@H]4CC(CN4CCC(CN6CCN7c8cc(-c9ccccc9O)nnc8NC[C@H]7C6)CC4)C5)cc3C2=O)C(=O)N1 (stereo partly drawn) [Example 180, 2-(2,6-dioxopiperidin-3-yl)-5-[(1S,5R)-3-[[4-[[(10S)-4-(2-hydroxyphenyl)-1,5,6,8,12-pentazatricyclo[8.4.0.02,7]tetradeca-2,4,6-trien-12-yl]methyl]piperidin-1-yl]methyl]-8-azabicyclo[3.2.1]octan-8-yl]isoindole-1,3-dione]	< 10 nM	75 to 85%	< 10 nM	75 to 85%	

From patent US12448389B2, “BRM targeting compounds and associated methods of use” (Prelude Therapeutics Incorporated, priority 2020, dated 2025)
